Consider 13 molecules from ChEMBL document CHEMBL1201862, “PubChem BioAssay data set” (2004).

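Tested at 5 concentrations; 48 h exposure; 96-well plates; endpoints linearly interpolated, else capped at highest concentration. GI50 is the concentration that inhibits growth by half.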 The source made the active and inactive calls. Cut-off read from the data, not from the text of the source: active = GI50 up to about 1.1 µM and inactive = higher.

Among the test systems are BT-549; SN12C; MDA-N; HT-29; K562; HCT-116; OVCAR-3; NCI-H23; MCF7; MDA-MB-435; HL-60; CAKI-1; UACC-62; COLO 205; OVCAR-8; SW-620.
What all share (assay): growth of human tumour cells (NCI), 48 h

In the case of `CC(C)=CCc1c(O)c(CC=C(C)C)c2oc3c(c(=O)c2c1O)C(C=C(C)C)Oc1cc(O)ccc1-3` (stereo not given), the GI50 in the experiment on BT-549 was 12.2 µM (inactive); with SN12C, 6.9 µM (inactive); in the experiment on MDA-N, 3.32 µM (inactive); in the experiment on HT-29, 10.3 µM (inactive); with K562 it was 3.98 µM (inactive); with HCT-116, 3.74 µM (inactive). For the same molecule, the GI50 is 4.18 µM (inactive) with OVCAR-3; 4.67 µM (inactive) in the experiment with NCI-H23; 4.98 µM (inactive) in the experiment with MCF7; 3.53 µM (inactive) in the experiment with MDA-MB-435; 5.85 µM (inactive) in the experiment with HL-60; 5.87 µM (inactive) in the experiment with CAKI-1. The GI50 in the experiment with UACC-62 was 6.37 µM (inactive); with COLO 205, 16 µM (inactive); with OVCAR-8, 6.85 µM (inactive); in the experiment on SW-620, 4.17 µM (inactive).

Take `CCN(CC)C1=Nc2ccccc2-n2c(C)cnc2C1`: the GI50 with BT-549, with SN12C, in the experiment with MDA-N, in the experiment on HT-29, in the experiment with K562 and in the experiment on HCT-116 was > 100 µM (inactive) each time. For the same molecule, the GI50 with OVCAR-3, in the experiment with NCI-H23, in the experiment with MCF7, with MDA-MB-435, in the experiment with HL-60 and in the experiment on CAKI-1 was > 100 µM (inactive) throughout. The GI50 with UACC-62, in the experiment on COLO 205, in the experiment on OVCAR-8 and in the experiment on SW-620 was > 100 µM (inactive) throughout.

Take `O=C1c2ccc3c4ccc5c6c(ccc(c7ccc(c2c37)C(=O)N1CCN1CCCCC1)c64)C(=O)N(CCN1CCCCC1)C5=O`: the GI50 in the experiment on BT-549, in the experiment with SN12C, in the experiment with MDA-N, with HT-29, with K562 and in the experiment on HCT-116 was > 100 µM (inactive) in each case. Moreover, the GI50 in the experiment with OVCAR-3, in the experiment on NCI-H23, with MCF7, in the experiment with MDA-MB-435, in the experiment with HL-60 and in the experiment with CAKI-1 was > 100 µM (inactive) each time. Besides, the GI50 with UACC-62, in the experiment with COLO 205, in the experiment with OVCAR-8 and in the experiment with SW-620 was > 100 µM (inactive) in each case.

Consider `Cc1ccc(O)c(Cc2nc3ccccc3nc2-c2cccc(Cl)c2)c1`, for which the GI50 in the experiment on BT-549 is > 100 µM (inactive); in the experiment on SN12C, 55.2 µM (inactive); in the experiment with MDA-N, 29.5 µM (inactive); in the experiment with HT-29 it was 44.3 µM (inactive); with K562 it was 28.5 µM (inactive); in the experiment on HCT-116 it was 42.9 µM (inactive). In addition, the GI50 was 68.9 µM (inactive) in the experiment with OVCAR-3; 69.3 µM (inactive) in the experiment with NCI-H23; 40.8 µM (inactive) with MCF7; 21.4 µM (inactive) with MDA-MB-435; 42 µM (inactive) with HL-60; 52.7 µM (inactive) in the experiment on CAKI-1. Besides, the GI50 in the experiment with UACC-62 was 57.9 µM (inactive); in the experiment with COLO 205, 58.6 µM (inactive); in the experiment on OVCAR-8, > 100 µM (inactive); with SW-620, 59 µM (inactive).

On to `COc1cc(-c2oc3c(OC)c(O)c(OC)c(O)c3c(=O)c2OC)cc(OC)c1OC`, for which the GI50 in the experiment on BT-549 was 71.8 µM (inactive); with SN12C, > 100 µM (inactive); in the experiment on MDA-N it was 61.8 µM (inactive); in the experiment on HT-29, 50.4 µM (inactive); in the experiment on K562, 36.7 µM (inactive); in the experiment on HCT-116 it was 68.1 µM (inactive). Further, the GI50 with OVCAR-3 is 31.6 µM (inactive); in the experiment on NCI-H23, > 100 µM (inactive); with MCF7, 38 µM (inactive); with MDA-MB-435 it was 35.4 µM (inactive); in the experiment with HL-60 it was 41 µM (inactive); in the experiment on CAKI-1, 42.8 µM (inactive). For the same molecule, the GI50 was 24.3 µM (inactive) with UACC-62, 83.8 µM (inactive) in the experiment with COLO 205, 53.7 µM (inactive) in the experiment with OVCAR-8 and > 100 µM (inactive) in the experiment with SW-620.

On to `N#Cc1c(-c2ccc(Cl)cc2)cc(-c2ccc(Nc3ccnc4cc(Cl)ccc34)cc2)[nH]c1=O`, for which the GI50 with BT-549 is 19.6 µM (inactive); in the experiment with MDA-N it was > 100 µM (inactive); with HT-29 it was > 100 µM (inactive); in the experiment on K562, > 54.5 µM (inactive); with HCT-116 it was 44.2 µM (inactive); in the experiment on OVCAR-3, > 100 µM (inactive). Further, the GI50 in the experiment with NCI-H23 was 24.7 µM (inactive); in the experiment with MCF7 it was > 100 µM (inactive); in the experiment with MDA-MB-435, > 100 µM (inactive); with HL-60, > 100 µM (inactive); in the experiment with CAKI-1, > 100 µM (inactive); in the experiment on UACC-62, > 100 µM (inactive). Further, the GI50 with COLO 205, in the experiment on OVCAR-8 and in the experiment on SW-620 was > 100 µM (inactive) throughout.

Turning to `C=C(Cl)C(Cl)(CBr)CCC(Cl)C(C)(C)Cl` (stereo not given), the GI50 with BT-549 was 5.47 µM (inactive); with SN12C it was 7.38 µM (inactive); with MDA-N, 1.81 µM (inactive); in the experiment with HT-29, 0.331 µM (active); in the experiment with K562 it was 2.22 µM (inactive); with HCT-116, 0.638 µM (active). For the same molecule, the GI50 is 1.61 µM (inactive) in the experiment with OVCAR-3; 8.89 µM (inactive) in the experiment with NCI-H23; 0.879 µM (active) in the experiment on MCF7; 2.05 µM (inactive) in the experiment on MDA-MB-435; 0.713 µM (active) in the experiment with HL-60; 1.08 µM (active) with CAKI-1. Besides, the values for the GI50 in the experiment with COLO 205, in the experiment on OVCAR-8 and in the experiment with SW-620 were 4.15 µM (inactive), 2.36 µM (inactive) and 1.47 µM (inactive), respectively.

`O=C(N/N=C\c1ccc(Cl)cc1)Nc1ccc2ccccc2c1`: the GI50 with BT-549 was 56.6 µM (inactive); in the experiment on SN12C, 40.6 µM (inactive); in the experiment with MDA-N, 86.7 µM (inactive); in the experiment on HT-29, 46.2 µM (inactive); with K562, > 100 µM (inactive); with HCT-116 it was 53.6 µM (inactive). In addition, the GI50 was > 100 µM (inactive) with OVCAR-3; 76.4 µM (inactive) in the experiment on NCI-H23; 87.9 µM (inactive) in the experiment on MCF7; 49.7 µM (inactive) with MDA-MB-435; 41.7 µM (inactive) in the experiment on CAKI-1; 34.5 µM (inactive) with UACC-62. For the same molecule, the GI50 was > 100 µM (inactive) with COLO 205, 27.4 µM (inactive) in the experiment with OVCAR-8 and 46.2 µM (inactive) in the experiment with SW-620.

Take `N=C(N)NCCCC(NC(=O)OCCCCn1ccc(N)nc1=O)C(=O)O` (stereo not given): the GI50 with BT-549, with SN12C, in the experiment with MDA-N, in the experiment with HT-29, with K562 and in the experiment with HCT-116 was > 100 µM (inactive) throughout. Besides, the GI50 in the experiment on OVCAR-3, with NCI-H23, in the experiment with MCF7, in the experiment on MDA-MB-435, with HL-60 and in the experiment on CAKI-1 was > 100 µM (inactive) in each case. Moreover, the GI50 in the experiment on UACC-62, with COLO 205 and in the experiment with SW-620 was > 100 µM (inactive) in each case.

Regarding `C=CCN1CCN([C@H](c2ccc(C(=O)N(CC)CC)cc2)c2cccc(OC)c2)CC1`, the GI50 with BT-549, in the experiment with SN12C, with MDA-N, with HT-29, with HCT-116 and in the experiment with OVCAR-3 was > 25 µM (inactive) each time. For the same molecule, the GI50 in the experiment on NCI-H23, with MCF7, with MDA-MB-435, in the experiment on HL-60, in the experiment on CAKI-1 and in the experiment with UACC-62 was > 25 µM (inactive) throughout. Also, the GI50 with COLO 205, in the experiment with OVCAR-8 and with SW-620 was > 25 µM (inactive) each time.

As for `Cc1cccc2nc3cccc(C(=O)NCCC[N+](C)(CCCNC(=O)c4cccc5nc6cccc(C)c6nc45)Cc4ccc([N+](=O)[O-])n4C)c3nc12`, the GI50 with BT-549 was > 100 µM (inactive); in the experiment with SN12C it was 0.839 µM (active); with MDA-N, 6.08 µM (inactive); in the experiment on HT-29, 0.396 µM (active); in the experiment on K562 it was 0.407 µM (active); in the experiment with HCT-116 it was 0.0615 µM (active). Moreover, the GI50 is 3.98 µM (inactive) in the experiment on OVCAR-3; > 67.1 µM (inactive) in the experiment with NCI-H23; 0.552 µM (active) with MCF7; > 27 µM (inactive) in the experiment with MDA-MB-435; 0.895 µM (active) with CAKI-1; 5.4 µM (inactive) in the experiment on UACC-62. Moreover, the GI50 with COLO 205 was 3.58 µM (inactive); in the experiment with OVCAR-8, 0.49 µM (active); in the experiment with SW-620, 0.284 µM (active).

With `CCN(CC)CCCNc1ccc([N+](=O)[O-])c2nc3ccccc3c(N)c12`, the GI50 is 1.4 µM (inactive) in the experiment on BT-549; 0.74 µM (active) in the experiment with SN12C; 0.492 µM (active) in the experiment on MDA-N; 0.437 µM (active) with HT-29; 0.478 µM (active) in the experiment with K562; 0.544 µM (active) in the experiment on HCT-116. The GI50 in the experiment with OVCAR-3 was 1.55 µM (inactive); in the experiment with NCI-H23, 0.828 µM (active); in the experiment with MCF7 it was 0.402 µM (active); in the experiment with MDA-MB-435, 1.06 µM (active); in the experiment on HL-60, 0.514 µM (active); with CAKI-1, 4.32 µM (inactive). Besides, the GI50 was 2.75 µM (inactive) in the experiment on UACC-62, 0.65 µM (active) in the experiment on OVCAR-8 and 0.365 µM (active) with SW-620.

As to `O=C1CNC(=O)/C(=C/c2c[nH]c3ccccc23)N1`, the GI50 in the experiment on BT-549, in the experiment on SN12C, in the experiment on MDA-N, in the experiment on HT-29, in the experiment on K562 and with HCT-116 was > 100 µM (inactive) in each case. For the same molecule, the GI50 with OVCAR-3 is > 100 µM (inactive); in the experiment with NCI-H23 it was > 100 µM (inactive); in the experiment on MCF7, > 100 µM (inactive); with MDA-MB-435, > 100 µM (inactive); with HL-60, 36.3 µM (inactive); with CAKI-1, > 100 µM (inactive). Further, the GI50 in the experiment with UACC-62, with OVCAR-8 and with SW-620 was > 100 µM (inactive) throughout.
